The numbers were not newly measured in patent US20060275243A1, “Cosmetic or therapeutic combination preparation with theanine” (ROVI GmbH & Co. Kosmetische Rohstoffe KG, priority 2005, published 2006), which cites them from elsewhere.

The conditions of this data set: investigations referred to in the description.

Turning to `CCNC(=O)CC[C@H](N)C(=O)O` [theanine], the “effect on the cramp-triggering effect of caffeine” value was “can inhibit the cramp-triggering effect of caffeine”.
